Measurements from US6613323B2 (priority 2000, dated 2003).

Test system: Magnaporthe grisea
Assay type: cell-based

OCCCCCCCCCCCCCCCCO [1,16-hexadecanediol]
effectiveness in inducing appressorium formation compared with cAMP (in the presence of recombinant PepEST): much more effective than cAMP
reversal of the inhibition of appressorium formation by the recombinant protein (spores treated in the presence of recombinant PepEST, cAMP 10 mM, 1,16-hexadecanediol 0.01 mM): reversible
